In brackets after ≈: the same amount, converted by molar mass.
Columns and labels:
Anas platyrhynchos = details: for LC50: short-term, oral, feed, mortality
Colinus virginianus = details: acute; oral; diet; mortality
Perdix sp. = details: acute; oral; unspecified; mortality
Phasianus sp. = details: acute; oral; unspecified; mortality
Apis mellifera = details: acute; duration: 48 hours; dermal; mortality
Canidae = details: oral, Dog Other
Chalcophaps sp. = details: acute; oral; unspecified; mortality
Daphnia magna = details: chronic/long-term; duration: 21 days; reproduction
Encarsia formosa = details: not reported; mortality
Lepomis macrochirus = details: acute; duration: 96 hours; mortality
Oncorhynchus mykiss = details: acute; duration: 96 hours; mortality
Pimephales promelas = details: chronic/long-term; duration: 31 days; growth

`CCCCc1c(C)nc(NCC)[nH]c1=O` [Ethirimol] showed an NOEC (Anas platyrhynchos; reproductive) of 58 mg/kg-day, an LC50 (Anas platyrhynchos) of over 1960 mg/kg-day and an LC50 (Colinus virginianus) of over 3380 mg/kg-day. The LD50 (Perdix sp.) was over 3000 mg/kg-day, the LD50 (Phasianus sp.) was over 3000 mg/kg-day and the NOAEL (Rattus norvegicus; acute, neurology) was 4000 mg/kg-day. For the same molecule, the NOAEL (Rattus norvegicus; chronic, duration: 2 years, clinical signs) was 3.5 mg/kg-day, the NOEL (Rattus norvegicus; chronic, mortality) was 500 mg/kg-day and the NOAEL (Rattus norvegicus; reproduction developmental, body weight) was 5 mg/kg-day.

For `CCCCc1c(C)nc(NCC)nc1OS(=O)(=O)N(C)C` [Bupirimate], the LC50 (Anas platyrhynchos) was over 2090 mg/kg-day, the LD50 (Apis mellifera) was over 50 µg/piece and the NOAEL (Canidae; chronic, duration: 2 years) was 5 mg/kg-day. For the same molecule, the NOAEL (Canidae; subchronic, duration: 90 days) was 15 mg/kg-day, the LD50 (Chalcophaps sp.) was over 2750 mg/kg-day and the LC50 (Colinus virginianus) was over 2580 mg/kg-day. For the same molecule, the LD50 (Coturnix japonica; acute, oral, mortality) was over 5000 mg/kg-day, the NOEC (Coturnix japonica; reproduction developmental) was at least 98 mg/kg-day and the NOEC (Daphnia magna) was 0.56 mg/L. The LEL (Encarsia formosa) was 750 g/ha, the LC50 (Lepomis macrochirus) was 1 µg/mL (≈ 3.16 µM) and the LC50 (Oncorhynchus mykiss) was 1 µg/mL (≈ 3.16 µM). For the same molecule, the NOEC (Pimephales promelas) was 0.1 mg/L, the LD50 (Rattus norvegicus; acute, oral, mortality) was 4000 mg/kg-day and the LC50 (Tagia sp.; acute, duration: 14 days, mortality) was over 1000 mg/kg. The NOEC (Tagia sp.; chronic/long-term) was 7.3 mg/kg.

— EPA's ToxValDB 9.5 (doi:10.2903/j.efsa.2010.1786)
